Data as given in patent publication US20100267561A1, “HERBICIDAL PYRIDAZINONE DERIVATIVES” (priority 2007, published 2010).

Tests used:
Experiment in all cases: Test B pre-/postemergence plant response
Assay type in all cases: in vivo
[1] = tested on: lambsquarters (Chenopodium album); conditions: for Lambsquarters plant response rating: 8 g ai/ha
Procedure, shortened: (§1)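 Seeds were sown and sprayed preemergence, while plants at 2 to 18 cm (1- to 4-leaf stage) got postemergence sprays. Compounds were formulated in a non-phytotoxic solvent mixture with surfactant. After 13 to 15 days in a greenhouse, injury was rated visually against untreated controls, 0 (no effect) to 100 (complete control).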

wild oat (Avena fatua) = conditions: for Oat, Wild plant response rating: 8 g ai/ha
Procedure, shortened: as §1

[2] = tested on: giant foxtail (Setaria faberii); conditions: for Foxtail, Giant plant response rating: 8 g ai/ha
Procedure, shortened: as §1

[3] = tested on: woolly cupgrass (Eriochloa villosa); conditions: for Cupgrass, Woolly plant response rating: 8 g ai/ha
Procedure, shortened: as §1

[4] = tested on: goosegrass (Eleusine indica); conditions: for Goosegrass plant response rating: 8 g ai/ha
Procedure, shortened: as §1

[5] = tested on: downy bromegrass (Bromus tectorum); conditions: for Bromegrass, Downy plant response rating: 8 g ai/ha
Procedure, shortened: as §1

corn (Zea mays) = conditions: for Corn plant response rating: 8 g ai/ha
Procedure, shortened: as §1

[6] = tested on: green foxtail (Setaria viridis); conditions: for Foxtail, Green plant response rating: 8 g ai/ha
Procedure, shortened: as §1

[7] = tested on: catchweed bedstraw (Galium aparine); conditions: Preemergence
Procedure, shortened: as §1

[8] = tested on: morningglory (Ipomoea coccinea); conditions: for Morningglory plant response rating: 8 g ai/ha
Procedure, shortened: as §1

[9] = tested on: common ragweed (Ambrosia elation); conditions: for Ragweed plant response rating: 8 g ai/ha
Procedure, shortened: as §1

[10] = tested on: pigweed (Amaranthus retroflexus); conditions: for Pigweed plant response rating: 8 g ai/ha
Procedure, shortened: as §1

[11] = tested on: surinam grass (Brachiaria decumbens); conditions: for Surinam Grass plant response rating: 8 g ai/ha
Procedure, shortened: as §1

[12] = tested on: blackgrass (Alopecurus myosuroides); conditions: for Blackgrass plant response rating: 8 g ai/ha
Procedure, shortened: as §1

[13] = Postemergence, 16 g ai/ha, scale 0 to 100
[14] = Postemergence, 31 g ai/ha, scale 0 to 100, 0 no effect, 100 complete control
[15] = Postemergence, 62 g ai/ha, scale 0 to 100, 0 no effect, 100 complete control
[16] = Preemergence, 16 g ai/ha, scale 0 to 100 (0 no effect, 100 complete control)
[17] = Preemergence, 31 g ai/ha, 0 to 100 scale, 0 no effect, 100 complete control
[18] = Preemergence, 62 g ai/ha, scale 0 to 100

Which results are given for `Cc1cc(-c2ccc(Cl)cc2)nn1-c1c(OC(=O)CC(C)C)cnn(C)c1=O` [Compound 37]?
Lambsquarters plant response rating ([1]; postemergence, 0-100 scale): 0; Plant response rating, Lambsquarters [1, 13]: 0; Plant response rating, Lambsquarters [1, 14]: 0; Plant response rating, Lambsquarters [1, 15]: 0; Plant response rating, Lambsquarters [1, 16]: 0; Plant response rating, Lambsquarters [1, 17]: 0; Plant response rating, Lambsquarters [1, 18]: 0; Lambsquarters plant response rating ([1]; Preemergence, scale 0 to 100): 0; Oat, Wild plant response rating (wild oat (Avena fatua); postemergence, 0-100 scale): 85; Plant response rating, Oat, Wild (wild oat (Avena fatua); [13]): 95; Plant response rating, Oat, Wild (wild oat (Avena fatua); [14]): 95; Plant response rating, Oat, Wild (wild oat (Avena fatua); [15]): 98; Plant response rating, Oat, Wild (wild oat (Avena fatua); [16]): 65; Plant response rating, Oat, Wild (wild oat (Avena fatua); [17]): 80; Plant response rating, Oat, Wild (wild oat (Avena fatua); [18]): 95; Oat, Wild plant response rating (wild oat (Avena fatua); Preemergence, scale 0 to 100): 0; Foxtail, Giant plant response rating ([2]; postemergence, 0-100 scale): 30; Plant response rating, Foxtail, Giant [2, 13]: 70; Plant response rating, Foxtail, Giant [2, 14]: 85; Plant response rating, Foxtail, Giant [2, 15]: 100; Plant response rating, Foxtail, Giant [2, 16]: 100; Plant response rating, Foxtail, Giant [2, 17]: 100; Plant response rating, Foxtail, Giant [2, 18]: 100; Foxtail, Giant plant response rating ([2]; Preemergence, scale 0 to 100): 100; Cupgrass, Woolly plant response rating ([3]; postemergence, 0-100 scale): 90; Plant response rating, Cupgrass, Woolly [3, 13]: 98; Plant response rating, Cupgrass, Woolly [3, 14]: 100; Plant response rating, Cupgrass, Woolly [3, 15]: 100; Plant response rating, Cupgrass, Woolly [3, 16]: 50; Plant response rating, Cupgrass, Woolly [3, 17]: 50; Plant response rating, Cupgrass, Woolly [3, 18]: 100; Cupgrass, Woolly plant response rating ([3]; Preemergence, scale 0 to 100): 50; Goosegrass plant response rating ([4]; postemergence, 0-100 scale): 100; Plant response rating, Goosegrass [4, 13]: 100; Plant response rating, Goosegrass [4, 14]: 100; Plant response rating, Goosegrass [4, 15]: 100; Plant response rating, Goosegrass [4, 16]: 90; Plant response rating, Goosegrass [4, 17]: 98; Plant response rating, Goosegrass [4, 18]: 100; Goosegrass plant response rating ([4]; Preemergence, scale 0 to 100): 75; Bromegrass, Downy plant response rating ([5]; postemergence, 0-100 scale): 0; Plant response rating, Bromegrass, Downy [5, 13]: 55; Plant response rating, Bromegrass, Downy [5, 14]: 55; Plant response rating, Bromegrass, Downy [5, 15]: 75; Plant response rating, Bromegrass, Downy [5, 16]: 30; Plant response rating, Bromegrass, Downy [5, 17]: 60; Plant response rating, Bromegrass, Downy [5, 18]: 80; Bromegrass, Downy plant response rating ([5]; Preemergence, scale 0 to 100): 0; Corn plant response rating (corn (Zea mays); postemergence, 0-100 scale): 45; Plant response rating, Corn (corn (Zea mays); [13]): 95; Plant response rating, Corn (corn (Zea mays); [14]): 100; Plant response rating, Corn (corn (Zea mays); [15]): 100; Plant response rating, Corn (corn (Zea mays); [16]): 40; Plant response rating, Corn (corn (Zea mays); [17]): 95; Plant response rating, Corn (corn (Zea mays); [18]): 98; Corn plant response rating (corn (Zea mays); Preemergence, scale 0 to 100): 40; Foxtail, Green plant response rating ([6]; postemergence, 0-100 scale): 60; Plant response rating, Foxtail, Green [6, 13]: 75; Plant response rating, Foxtail, Green [6, 14]: 80; Plant response rating, Foxtail, Green [6, 15]: 85; Plant response rating, Foxtail, Green [6, 16]: 98; Plant response rating, Foxtail, Green [6, 17]: 100; Plant response rating, Foxtail, Green [6, 18]: 100; Foxtail, Green plant response rating ([6]; Preemergence, scale 0 to 100): 40; Plant response rating, Galium ([7]; 16 g ai/ha, scale 0 to 100 (0 no effect, 100 complete control)): 0; Plant response rating, Galium ([7]; 31 g ai/ha, 0 to 100 scale, 0 no effect, 100 complete control): 0; Plant response rating, Galium ([7]; 62 g ai/ha, scale 0 to 100): 0; Galium plant response rating ([7]; 8 g ai/ha, scale 0 to 100): 0; Morningglory plant response rating ([8]; postemergence, 0-100 scale): 0; Plant response rating, Morningglory [8, 13]: 0; Plant response rating, Morningglory [8, 14]: 0; Plant response rating, Morningglory [8, 15]: 0; Plant response rating, Morningglory [8, 16]: 0; Plant response rating, Morningglory [8, 17]: 0; Plant response rating, Morningglory [8, 18]: 0; Morningglory plant response rating ([8]; Preemergence, scale 0 to 100): 0; Ragweed plant response rating ([9]; postemergence, 0-100 scale): 0; Plant response rating, Ragweed [9, 13]: 0; Plant response rating, Ragweed [9, 14]: 0; Plant response rating, Ragweed [9, 15]: 0; Plant response rating, Ragweed [9, 16]: 0; Plant response rating, Ragweed [9, 17]: 0; Plant response rating, Ragweed [9, 18]: 0; Ragweed plant response rating ([9]; Preemergence, scale 0 to 100): 0; Pigweed plant response rating ([10]; postemergence, 0-100 scale): 0; Plant response rating, Pigweed [10, 13]: 0; Plant response rating, Pigweed [10, 14]: 0; Plant response rating, Pigweed [10, 15]: 0; Plant response rating, Pigweed [10, 16]: 0; Plant response rating, Pigweed [10, 17]: 0; Plant response rating, Pigweed [10, 18]: 0; Pigweed plant response rating ([10]; Preemergence, scale 0 to 100): 0; Surinam Grass plant response rating ([11]; postemergence, 0-100 scale): 95; Plant response rating, Surinam Grass [11, 13]: 100; Plant response rating, Surinam Grass [11, 15]: 100; Plant response rating, Surinam Grass [11, 16]: 85; Plant response rating, Surinam Grass [11, 17]: 98; Plant response rating, Surinam Grass [11, 18]: 100; Surinam Grass plant response rating ([11]; Preemergence, scale 0 to 100): 65; Blackgrass plant response rating ([12]; postemergence, 0-100 scale): 10; Plant response rating, Blackgrass [12, 13]: 75; Plant response rating, Blackgrass [12, 14]: 90; Plant response rating, Blackgrass [12, 15]: 90; Plant response rating, Blackgrass [12, 16]: 100; Plant response rating, Blackgrass [12, 17]: 100; Plant response rating, Blackgrass [12, 18]: 100; Blackgrass plant response rating ([12]; Preemergence, scale 0 to 100): 95
